Source: patent publication US20230165970A1, “COMPOSITIONS AND METHODS FOR THE TREATMENT OF BACTERIAL INFECTIONS” (priority 2017, published 2023)
≈ marks a conversion by molar mass, not a printed value. Where two headings read alike, the source gives them in different places. *1 amine or outer side, *2 acyl side, *3 side chain or, on linkers, in order; H or OH if unused. Where a SMILES comes first, the peptide text is derived from it. Bridges are numbered along the chain shown (N, C = ends). Roman numbers before positions name the chains, in order. [ ]: non-standard residue; d: D form. The star is where a group is joined. ξ: configuration not given here. X8 = C#CCOCCOCCOCCOCCN1CCN(C2C[C@@H](C(=O)[*:1])[C@H](C(=O)[*:2])C2)CC1; X2 = O=C([C@@H](N[*:1])[C@H](O)CCC(F)(F)F)[*:2]; Propargyl(OCH2CH2)4CO = C#CCOCCOCCOCCOCCC(=O)*; X3 = CCCCC[C@@H](O)[C@H](N[*:1])C(=O)[*:2]; Aoc(2) = CCCCCC[C@H](N)C(=O)O; hLeu = CC(C)CC[C@H](N)C(=O)O; X7 = NCCN(NC(=O)[*:2])[*:1]; Nle = CCCC[C@H](N)C(=O)O; ξF = NC(Cc1ccccc1)C(=O)O; Dab = NCC[C@H](N)C(=O)O; ξT = CC(O)C(N)C(=O)O; azaGly = NNC(=O)O

Key:
LPS from E. coli O111:B4 = test: LPS binding/neutralization by Limulus Amebocyte Lysate (LAL) assay; assay type: biochemical; conditions: LPS 1-10,000 ng/mL, test article 0.25-10 μM; for % LPS neutralization of TM: sum of AUCs relative to maximal AUC (Table 14); for % LPS neutralization: sum of AUCs relative to maximal AUC (Table 15)
Protocol: The LAL assay (Charles River) was used to determine the binding affinity of test articles to LPS.
(§1) For the assay, 25 μL purified LPS from E. coli O111:1B4 (Sigma) at doses ranging from 1-10,000 ng/mL were incubated with 25 μL of test article at concentrations ranging from 0.25-10 NM. After 5 min incubation at 37° C., 50 μL of LAL reagent, which reacts with lipid A portion from LPS, was added to corresponding wells. After 15 min, absorbance at 405 nm was read on EnSpire plate reader (Perkin Elmer). The % LPS neutralization is calculated relative to a PBS control (background) and LPS control at each concentration (positive control).
LPS neutralization=(1−(absorbance test article−PBS with LAL reagent)/(absorbance no test article−PBS with LAL reagent))×100
To obtain a single value of LPS neutralization for each test article, the area under the curve (AUC) for dose-response of test articles from […] for each LPS concentration was calculated using Prism 7 software. The % LPS neutralization is the sum of the AUCs for each LPS concentration determined relative to the maximal AUC achievable×100.
as §1, with “O111:B4” for “O111:1B4”, “μM.” for “NM.”

Ab AB5075 = assay type: cell-based, Acinetobacter baumannii
Protocol: (§2) Briefly, stock solutions of all antibacterial agents were prepared fresh in appropriate solvents (i.e. PBS, pH 7.4, DMSO, DI, etc.). Stock concentrations for drug conjugates were made at 12.5× the highest final assay concentration. All were serially diluted 2-fold, 8 or 12 times in a 96-well PCR plate (VWR cat. no. 83007-374). Bacterial cell suspensions generated from Mueller-Hinton agar (MHA) plate cultures were prepared in 0.85% saline and adjusted to ˜0.1 OD600 nm. […] For the conjugates, 92 μL of each cell suspension in RPMI B were added in the same 96-well plate assay format. […] Compounds were tested against a 14-strain panel comprised of E. coli (Ec), A. baumannii (Ab), P. aeruginosa (Pa), and K. pneumoniae (Kp) that were obtained from ATCC (Ec 25922, Ec 2489, Ab 19606, Pa 27853, Pa PAO1, Kp 43816, Kp 10031), Centers for Disease Control and Prevention (Ec AR0349), BEI Resources (Ab AB5075), Micromyx LLC (Ab 8990, Kp 6951), and Belgian Coordinated Collections of Microorganisms (Pa LES431) or generated in-house (Ec 25922 64X-1). […] E. coli strain ATCC 25922 and P. aeruginosa strain LES431 were run in the presence and absence of 50% heat-inactivated fetal bovine serum (FBS; Sigma, cat. no. F4135-100 mL). Plates were mixed by shaking then incubated at 35° C. overnight (16-20 h).

Ab 8990 (COL^R) = assay type: cell-based, Acinetobacter baumannii; conditions: Ab 8990 (COL^R); media CA-MHB
Protocol: as §2

Pa 27853 = assay type: cell-based, Pseudomonas aeruginosa
Protocol: as §2

Pa PAO1 = assay type: cell-based, Pseudomonas aeruginosa
Protocol: as §2

Pa LES431 = assay type: cell-based, Pseudomonas aeruginosa
Protocol: as §2

Ab 19606 (COLhet^R) = assay type: cell-based, Acinetobacter baumannii; conditions: media CA-MHB
Protocol: (§3) Briefly, stock solutions of all antibacterial agents were prepared fresh in appropriate solvents (i.e. PBS, pH 7.4, DMSO, DI, etc.). Stock concentrations for drug conjugates were made at 12.5× the highest final assay concentration. All were serially diluted 2-fold, 8 or 12 times in a 96-well PCR plate (VWR cat. no. 83007-374). Bacterial cell suspensions generated from Mueller-Hinton agar (MHA) plate cultures were prepared in 0.85% saline and adjusted to ˜0.1 OD600 nm. Next, cell suspensions were diluted 1:200 in RPMI containing 5% Luria Broth (LB) to improve bacterial growth (BD Difco, cat. no. 244620) to a concentration of ˜5×10^5 CFU (colony-forming units)/mL. Due to poor solubility in Mueller-Hinton broth media, drug conjugates were evaluated in RPMI 1640 medium (+) L-glutamine, (+) sodium bicarbonate, pH 7.4 (“RPMI B”; Gibco, cat. no. 11875-085) as has been described as a more physiologically-relevant media for susceptibility testing of antibacterial compounds (1). For the conjugates, 92 μL of each cell suspension in RPMI B were added in the same 96-well plate assay format. […] Compounds were tested against a 14-strain panel comprised of E. coli (Ec), A. baumannii (Ab), P. aeruginosa (Pa), and K. pneumoniae (Kp) that were obtained from ATCC (Ec 25922, Ec 2489, Ab 19606, Pa 27853, Pa PAO1, Kp 43816, Kp 10031), Centers for Disease Control and Prevention (Ec AR0349), BEI Resources (Ab AB5075), Micromyx LLC (Ab 8990, Kp 6951), and Belgian Coordinated Collections of Microorganisms (Pa LES431) or generated in-house (Ec 25922 64X-1). […] E. coli strain ATCC 25922 and P. aeruginosa strain LES431 were run in the presence and absence of 50% heat-inactivated fetal bovine serum (FBS; Sigma, cat. no. F4135-100 mL). Plates were mixed by shaking then incubated at 35° C. overnight (16-20 h).

Ec AR0349 (mcr-1, COL^R) = assay type: cell-based, Escherichia coli; conditions: media CA-MHB
Protocol: as §3

Ec 25922 64X-1 (COL^R) = assay type: cell-based, Escherichia coli; conditions: media CA-MHB
Protocol: as §3

Kp 10031 = assay type: cell-based, Klebsiella pneumoniae
Protocol: as §2

Kp 6951 (COL^R) = assay type: cell-based, Klebsiella pneumoniae; conditions: Kp 6951 (COL^R); media CA-MHB
Protocol: as §2

Kp 43816 = assay type: cell-based, Klebsiella pneumoniae
Protocol: as §2

Ec 2469 = assay type: cell-based, Escherichia coli
Protocol: as §2

Ec 25922 = assay type: cell-based, Escherichia coli
Protocol: as §2

Sa RN = assay type: cell-based
[1] = test system: Ab AB58705 (COL^R) IpxD, mut. (no LPS); assay type: cell-based, Acinetobacter baumannii; conditions: media CA-MHB

Molecule	% LPS neutralization of TM (LPS from E. coli O111:B4)	MIC (Ab 8990 (COL^R))	MIC (Ab 19606 (COLhet^R))	MIC (Ec AR0349 (mcr-1, COL^R))	MIC (Ec 25922 64X-1 (COL^R))	MIC (Kp 6951 (COL^R))	MIC (Sa RN)	MIC (Ab AB5075)	MIC (Pa 27853)	MIC (Pa PAO1; PAO1)	MIC (Pa LES431)	MIC (Kp 10031)	MIC (Kp 43816)	MIC (Ec 2469)	MIC (Ec 25922)	% LPS neutralization (LPS from E. coli O111:B4)	further results
C#CCOCCOCCOCCOCCC(=O)N[C@@H](CCCC)C(=O)N[C@@H](CCN)C(=O)N[C@H](C(=O)NNC(=O)N[C@H]1CCNC(=O)[C@H]([C@@H](C)O)NC(=O)[C@H](CCN)NC(=O)[C@H](CCN)NC(=O)[C@H](CC(C)C)NC(=O)[C@@H](Cc2ccccc2)NC(=O)[C@H](CCN)NC1=O)[C@H](O)CCCCC [Int-100] ({Propargyl(OCH2CH2)4CO}-[Nle][Dab][X3][azaGly][Dab][Dab][dF]L[Dab][Dab]T; lactam 5-C)	38.9%																
C#CCOCCOCCOCCOCCN1CCN(C2C[C@@H](C(=O)N[C@@H](CCCC)C(=O)N[C@@H](CCN)C(=O)N[C@H](C(=O)NNC(=O)N[C@H]3CCNC(=O)[C@H]([C@@H](C)O)NC(=O)[C@H](CCN)NC(=O)[C@H](CCN)NC(=O)[C@H](CC(C)C)NC(=O)C(Cc4ccccc4)NC(=O)[C@H](CCN)NC3=O)[C@@H](C)O)[C@H](C(=O)N[C@@H](CCCC)C(=O)N[C@@H](CCN)C(=O)N[C@H](C(=O)NNC(=O)N[C@H]3CCNC(=O)C(C(C)O)NC(=O)[C@H](CCN)NC(=O)[C@H](CCN)NC(=O)[C@H](CC(C)C)NC(=O)[C@@H](Cc4ccccc4)NC(=O)[C@H](CCN)NC3=O)[C@@H](C)O)C2)CC1 (stereo partly shown) [Int-105] (I: [Nle][Dab]T[azaGly][Dab][Dab][dF]L[Dab][Dab][ξT] / II: [Nle][Dab]T[azaGly][Dab][Dab][ξF]L[Dab][Dab]T; lactam I:5-I:C, II:5-II:C; linker I:N-II:N via X8)	33.2%	>128 µg/mL	2 µg/mL (≈ 0.744 µM)	4 µg/mL (≈ 1.49 µM)	4 µg/mL (≈ 1.49 µM)	32 µg/mL (≈ 11.9 µM)											MIC (Ab AB5075; Ab AB5075, media CA-MHB): 2 µg/mL (≈ 0.744 µM); MIC (Pa 27853; Pa 27853, media CA-MHB): 4 µg/mL (≈ 1.49 µM); MIC (Pa PAO1; Pa PAO1, media CA-MHB): 4 µg/mL (≈ 1.49 µM); MIC (Pa LES431; Pa LES431 + FBS (50%, heat-inactivated), media CA-MHB): 16 µg/mL; MIC (Pa LES431; Pa LES431, media CA-MHB): 2 µg/mL (≈ 0.744 µM); MIC (Kp 10031; Kp 10031, media CA-MHB): 2 µg/mL (≈ 0.744 µM); MIC (Kp 43816; Kp 43816, media CA-MHB): 2 µg/mL (≈ 0.744 µM); MIC (Ec 2469; Ec 2469, media CA-MHB): 2 µg/mL (≈ 0.744 µM); MIC (Ec 25922; Ec 25922 + FBS (50%, heat-inactivated), media CA-MHB): 0.5 µg/mL; MIC (Ec 25922; Ec 25922, media CA-MHB): 2 µg/mL (≈ 0.744 µM)
C#CCOCCOCCOCCOCCC(=O)N[C@@H](CCCCCC)C(=O)N[C@@H](CCN)C(=O)N[C@H](C(=O)NNC(=O)N[C@H]1CCNC(=O)[C@H]([C@@H](C)O)NC(=O)[C@H](CCN)NC(=O)[C@H](CCN)NC(=O)[C@H](CC(C)C)NC(=O)[C@@H](Cc2ccccc2)NC(=O)[C@H](CCN)NC1=O)[C@H](O)CCC(F)(F)F [Int-119] ({Propargyl(OCH2CH2)4CO}-[Aoc(2)][Dab][X2][azaGly][Dab][Dab][dF]L[Dab][Dab]T; lactam 5-C)							>128 µg/mL	1 µg/mL (≈ 0.673 µM)	4 µg/mL (≈ 2.69 µM)	16 µg/mL (≈ 10.8 µM)	4 µg/mL (≈ 2.69 µM)	2 µg/mL (≈ 1.35 µM)	2 µg/mL (≈ 1.35 µM)	2 µg/mL (≈ 1.35 µM)	2 µg/mL (≈ 1.35 µM)		
C#CCOCCOCCOCCOCCC(=O)N[C@@H](CCC(C)C)C(=O)N[C@@H](CCN)C(=O)N[C@H](C(=O)N(CCN)NC(=O)N[C@H]1CCNC(=O)[C@H]([C@@H](C)O)NC(=O)[C@H](CCN)NC(=O)[C@H](CCN)NC(=O)[C@H](CC(C)C)NC(=O)[C@@H](Cc2ccccc2)NC(=O)[C@H](CCN)NC1=O)[C@@H](C)O [Int-126] ({Propargyl(OCH2CH2)4CO}-[hLeu][Dab]T[X7][Dab][Dab][dF]L[Dab][Dab]T; lactam 5-C)		>128 µg/mL	4 µg/mL (≈ 2.79 µM)	8 µg/mL (≈ 5.58 µM)	64 µg/mL (≈ 44.6 µM)	>128 µg/mL	>128 µg/mL	2 µg/mL (≈ 1.39 µM)	2 µg/mL (≈ 1.39 µM)	2 µg/mL (≈ 1.39 µM)	4 µg/mL (≈ 2.79 µM)	1 µg/mL (≈ 0.697 µM)	1 µg/mL (≈ 0.697 µM)	0.5 µg/mL (≈ 0.349 µM)	1 µg/mL (≈ 0.697 µM)	19.7%	MIC [1]: 64 µg/mL (≈ 44.6 µM)
colistin sulfate																9.21%	
